Laboratory results as given in US9057726B2, “Neuropeptide Q as modulator of GPCR GALR2 and uses thereof” (Actelion Pharmaceuticals Ltd., priority 2010, dated 2015).
No end group written: not given here.

Legend:
GALR2 [1] = biological target: T1, GALR2 (Homo sapiens, UniProt O43603); experiment: FLIPR assay (intracellular calcium release); type: cell-based; set-up: expressed in transfected cells; host or cells: CHO-K1 (coexpressing Gα16); details: CHO-K1 cells coexpressing Gα16 and human GALR2
T1 sequence (O43603 1-387): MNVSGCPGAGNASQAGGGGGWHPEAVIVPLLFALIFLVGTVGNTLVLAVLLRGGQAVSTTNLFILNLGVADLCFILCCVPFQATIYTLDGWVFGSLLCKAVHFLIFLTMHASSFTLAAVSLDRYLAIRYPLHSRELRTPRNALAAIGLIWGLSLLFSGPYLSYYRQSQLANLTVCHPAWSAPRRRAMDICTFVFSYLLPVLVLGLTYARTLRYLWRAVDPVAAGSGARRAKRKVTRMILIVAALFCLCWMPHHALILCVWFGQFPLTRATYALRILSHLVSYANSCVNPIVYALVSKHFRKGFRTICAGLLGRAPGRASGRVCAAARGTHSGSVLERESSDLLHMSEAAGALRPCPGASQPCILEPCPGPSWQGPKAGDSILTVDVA
Description: CHO-K1 cells coexpressing Gα16 and the recombinant human GALR2 receptor grown to mid-log phase in culture media are detached with PBS-EDTA, centrifuged, resuspended in cell-culture medium (HAM's F12 with HEPES, 10% (v/v) Fetal Calf Serum), and dispensed at 15′000 cells per well in 384-well FLIPR plates. After overnight incubation in a humidified 37° C./5% CO2 incubator, the medium was discarded and replaced with a dye solution (DMEM w/o Phenol Red with HEPES, Fluo4-AM and Probenecid). After an incubation of 1 hour in a humidified 37° C./5% CO2 incubator, the dye solution was replaced by Assay Medium (HBSS/DMEM w/o phenol red). […] The resulting emission of fluorescence is recorded using FLIPR tetra. For antagonist testing 100 μl of the Neuropeptide Q polypeptide at its EC80 is injected on the mix of cells and candidate modulator, following an incubation of 15 min after the first injection. The resulting emission of fluorescence is recorded using FLIPR tetra. Agonist activity of the candidate modulator is expressed as a percentage of the activity of the Neuropeptide Q polypeptide at its EC100 concentration. Antagonist activity of the candidate modulator is expressed as a percentage of the inhibition of Neuropeptide Q polypeptide activity at its EC80 concentration.

stomach muscle = details: stomach explants, dose-dependent contraction; cited from earlier work
GALR2 [2] = biological target: T1, GALR2; details: in vitro studies; cited from earlier work

Substance	EC50 (GALR2 [1]) [nM]	further results
NWTPQAMLYLKGAQ [Neuropeptide Q, synthetic amidated Neuropeptide Q tested by Mirabeau et al]	–	EC50 (stomach muscle): 750 nM
galanin-(2-13)-Glu-His-(Pro)3-(Ala-Leu)2-Ala-amide [Peptide M871]	–	higher affinity for GALR2 than for GALR1 (GALR2 [2]): 32 fold

Further lines, with some results ahead:

EC50 (GALR2 [1]) [nM]	Substance	further results
0.1	NWTPQAMLYLKGAAG	–
0.3	NWTPQAMLYLKGAQP	–
0.3	NWTPQAMLYLKGPQG	–
0.1	PWTPQAMLYLKGAQG	–
